{
  "source": "ChEMBL document CHEMBL5390228",
  "about": "“Unnatural Endotype B PPAPs as Novel Compounds with Activity against Mycobacterium tuberculosis” (J Med Chem, 2023)",
  "tested_on": "Mycobacterium tuberculosis",
  "experiment": "Antimicrobial activity in INH-resistant Mycobacterium tuberculosis ATCC 35822 infected in human Primary macrophage cells assessed as reduction in intracellular growth of bacteria incubated for 4 days by CFU assay",
  "assay_type": "functional, organism-based",
  "conditions": "ATCC 35822, Primary macrophage, 96 h",
  "note": "pIC50: −log10 of the molar value.",
  "data": [
    {"smiles": "C=CC[C@@]12C[C@H](CC=C(C)C)C(C)(C)[C@@](CC=C)(C(=O)C(C(C)=O)=C1[O-])C2=O.[Na+]", "values": [
      {"measurement": "pIC50", "value": 4.80}
    ]}
  ]
}
